Source: patent publication US10526352B2, “Tricyclic benzoxaborole compounds and uses thereof” (GlaxoSmithKline Intellectual Property (No.2) Limited, priority 2013, dated 2020)
Converted amounts (≈) assume the structure as drawn. Like-named read-outs stand apart in the source and are kept apart here.

What was measured:
P. aeruginosa PA01 = assay: General antimicrobial activity assay (CLSI broth microdilution); format: cell-based, Pseudomonas aeruginosa
Protocol: (§1) Whole-cell antimicrobial activity was determined by broth microdilution using the Clinical and Laboratory Standards Institute (CLSI) recommended procedure, Document M7-A7, “Methods for Dilution Susceptibility Tests for Bacteria that Grow Aerobically”.

E. coli K12 = assay: as above; format: cell-based, Escherichia coli
Protocol: as §1

E. coli K12 tolC::Tn10 = assay: as above; format: cell-based, Escherichia coli
Protocol: as §1

HepG2 cells = details: for Selectivity Index (A/B): HepG2 Tox50 (A) / Mtb H37Rv MIC (B)
[1] = test system: M. tuberculosis clinical isolates; assay: MIC against clinical strains (BACTEC MGIT 960 System); format: cell-based; details: Mycobacterium tuberculosis
A. baumannii ATCC 17978 = assay: General antimicrobial activity assay (CLSI broth microdilution); format: cell-based, Acinetobacter baumannii
Protocol: as §1

[2] = test system: M. tuberculosis standard strain Mtb H37Rv; assay: MIC determination against mycobacteria (resazurin, Middlebrook 7H9); format: cell-based, Mycobacterium tuberculosis; details: read-out: Mtb H37Rv MIC (B)
Mtb LeuRS = Mtb LeuRS (Mycobacterium tuberculosis, UniProt P9WFV1); assay: biochemical; design: species or system M. tuberculosis
Sequence of Mtb LeuRS (P9WFV1 whole entry): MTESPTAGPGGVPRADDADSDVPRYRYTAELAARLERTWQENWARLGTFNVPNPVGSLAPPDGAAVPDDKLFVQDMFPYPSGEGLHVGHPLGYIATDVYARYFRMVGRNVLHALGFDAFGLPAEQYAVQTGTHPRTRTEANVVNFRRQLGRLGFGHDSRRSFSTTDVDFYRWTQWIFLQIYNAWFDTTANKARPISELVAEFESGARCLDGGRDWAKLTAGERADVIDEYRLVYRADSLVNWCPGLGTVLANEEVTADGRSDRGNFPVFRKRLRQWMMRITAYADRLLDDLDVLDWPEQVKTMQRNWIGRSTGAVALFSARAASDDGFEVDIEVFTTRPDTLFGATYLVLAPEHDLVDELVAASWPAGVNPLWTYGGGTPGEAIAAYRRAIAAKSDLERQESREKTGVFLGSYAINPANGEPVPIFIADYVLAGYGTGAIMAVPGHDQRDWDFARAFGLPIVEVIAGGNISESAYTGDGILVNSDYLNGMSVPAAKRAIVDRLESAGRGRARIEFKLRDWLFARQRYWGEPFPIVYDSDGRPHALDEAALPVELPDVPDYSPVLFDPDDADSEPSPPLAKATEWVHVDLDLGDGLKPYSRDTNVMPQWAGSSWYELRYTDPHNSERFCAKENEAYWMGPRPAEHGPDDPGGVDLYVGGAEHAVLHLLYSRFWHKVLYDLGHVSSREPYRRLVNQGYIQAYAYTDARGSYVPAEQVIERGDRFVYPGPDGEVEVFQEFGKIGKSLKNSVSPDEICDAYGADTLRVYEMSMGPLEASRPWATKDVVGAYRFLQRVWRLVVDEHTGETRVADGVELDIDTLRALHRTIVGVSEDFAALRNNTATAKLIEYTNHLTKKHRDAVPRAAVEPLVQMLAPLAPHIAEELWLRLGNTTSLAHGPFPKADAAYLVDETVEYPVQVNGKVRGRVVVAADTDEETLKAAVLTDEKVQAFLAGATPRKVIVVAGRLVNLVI

[3] = Mycobacterium tuberculosis, H37RV

Question: Which “MIC: P. aeruginosa PA01” value (P. aeruginosa PA01) does the source give for `Cl.NC[C@H]1OB2OCCOc3ccc(Br)c1c32` [Example 2, (S)-(3-bromo-7,8-dihydro-2H-1,6,9-trioxa-9a-borabenzo[cd]azulen-2-yl)methanamine hydrochloride] here?
Answer: The value was 64 µg/mL.

Question: What about the “MIC: E. coli K12” value (E. coli K12) of the same molecule?
Answer: Its value is 64 µg/mL.

Question: What about the “MIC: E. coli K12 tolC::Tn10” value (E. coli K12 tolC::Tn10) of the same molecule?
Answer: The value was 64 µg/mL.

Question: What about the “HepG2 cell 48 h Tox50 (A)” value (HepG2 cells) of the same molecule?
Answer: The value was 292.4 µM.

Question: And the “Selectivity Index (A/B)” value (HepG2 cells)?
Answer: Its value is 4177.

Question: And the MIC ([1]; for all of but 1 of the 40 clinical isolate strains tested)?
Answer: Its MIC is less than 1 µM.

Question: And the MIC ([1]; read-out: measured MIC (breakdown), for 1 strain (EXAMPLE 2 and EXAMPLE 4), highest MIC)?
Answer: Its MIC is 0.16 µM.

Question: What about the MIC ([1]; read-out: measured MIC (breakdown), for 1 strain of 40 clinical isolates (EXAMPLE 2)) of the same molecule?
Answer: The MIC was 0.04 µM.

Question: What about the MIC ([1]; read-out: measured MIC (breakdown), for 40 strains (EXAMPLE 2 and EXAMPLE 4)) of the same molecule?
Answer: Its MIC is 0.08 µM.

Question: And the MIC ([1]; strain 137, sensitive clinical isolate)?
Answer: Its MIC is 0.08 µM.

Question: What about the MIC ([1]; strain 169, sensitive clinical isolate) of the same molecule?
Answer: The MIC was 0.08 µM.

Question: What about the MIC ([1]; strain 192, sensitive clinical isolate) of the same molecule?
Answer: Its MIC is 0.08 µM.

Question: And the MIC ([1]; strain 199, sensitive clinical isolate)?
Answer: Its MIC is 0.08 µM.

Question: What about the MIC ([1]; strain 206, sensitive clinical isolate) of the same molecule?
Answer: The MIC was 0.08 µM.

Question: And the MIC ([1]; strain 207, sensitive clinical isolate)?
Answer: The MIC was 0.08 µM.

Question: What about the MIC ([1]; strain 208, sensitive clinical isolate) of the same molecule?
Answer: Its MIC is 0.08 µM.

Question: And the MIC ([1]; strain 223, sensitive clinical isolate)?
Answer: Its MIC is 0.08 µM.

Question: What about the MIC ([1]; strain 231, sensitive clinical isolate) of the same molecule?
Answer: Its MIC is 0.08 µM.

Question: What about the MIC ([1]; strain 237, sensitive clinical isolate) of the same molecule?
Answer: The MIC was 0.08 µM.

Question: And the MIC ([1]; strain 247, sensitive clinical isolate)?
Answer: The MIC was 0.08 µM.

Question: What about the MIC ([1]; strain 248, sensitive clinical isolate) of the same molecule?
Answer: The MIC was 0.08 µM.

Question: What about the MIC ([1]; strain 249, sensitive clinical isolate) of the same molecule?
Answer: Its MIC is 0.08 µM.

Question: What about the MIC ([1]; strain 255, sensitive clinical isolate) of the same molecule?
Answer: Its MIC is 0.08 µM.

Question: And the MIC ([1]; strain 261, sensitive clinical isolate)?
Answer: Its MIC is 0.08 µM.

Question: And the MIC ([1]; strain 265, sensitive clinical isolate)?
Answer: The MIC was 0.08 µM.

Question: What about the MIC ([1]; strain 269, sensitive clinical isolate) of the same molecule?
Answer: The MIC was 0.08 µM.

Question: What about the MIC ([1]; strain 281, sensitive clinical isolate) of the same molecule?
Answer: Its MIC is 0.08 µM.

Question: What about the MIC ([1]; strain 292, sensitive clinical isolate) of the same molecule?
Answer: Its MIC is 0.08 µM.

Question: What about the MIC ([1]; strain 314, sensitive clinical isolate) of the same molecule?
Answer: Its MIC is 0.08 µM.

Question: And the MIC ([1]; strain 316, sensitive clinical isolate)?
Answer: The MIC was 0.08 µM.

Question: And the MIC ([1]; strain 317, sensitive clinical isolate)?
Answer: The MIC was 0.08 µM.

Question: And the MIC ([1]; strain 322, sensitive clinical isolate)?
Answer: Its MIC is 0.08 µM.

Question: And the MIC ([1]; strain 323, sensitive clinical isolate)?
Answer: The MIC was 0.08 µM.

Question: What about the MIC ([1]; strain 324, sensitive clinical isolate) of the same molecule?
Answer: The MIC was 0.08 µM.

Question: What about the MIC ([1]; strain 326, sensitive clinical isolate) of the same molecule?
Answer: Its MIC is 0.08 µM.

Question: And the MIC ([1]; strain 327, sensitive clinical isolate)?
Answer: The MIC was 0.08 µM.

Question: What about the MIC ([1]; strain 328, sensitive clinical isolate) of the same molecule?
Answer: Its MIC is 0.08 µM.

Question: And the MIC ([1]; strain 329, sensitive clinical isolate)?
Answer: The MIC was 0.08 µM.

Question: What about the MIC ([1]; strain 332, sensitive clinical isolate) of the same molecule?
Answer: Its MIC is 0.08 µM.

Question: What about the MIC ([1]; strain 333, sensitive clinical isolate) of the same molecule?
Answer: The MIC was 0.08 µM.

Question: And the MIC ([1]; strain 358, sensitive clinical isolate)?
Answer: Its MIC is 0.08 µM.

Question: And the “MIC: A. baumannii ATCC 17978” value (A. baumannii ATCC 17978)?
Answer: Its value is 64 µg/mL.

Question: And the MIC [2, 3]?
Answer: The MIC was less than 0.1 µM.

Question: What about the MIC ([2]; hydrochloride) of the same molecule?
Answer: Its MIC is 0.07 µM.

Question: `C[C@]1(CO)COc2ccc(Br)c3c2B(OC3CN)O1` (stereo partly drawn) [Example 17, ((2S, 8S, or 2R, 8R)-2-(aminomethyl)-3-bromo-8-methyl-7,8-dihydro-2H-1,6,9-trioxa-9a-borabenzo[cd]azulen-8-yl)methanol] was tested. Which “Selectivity Index (A/B)” value (HepG2 cells) did it give?
Answer: Its value is greater than 50.

Question: What about the “HepG2 cell 48 h Tox50 (A)” value (HepG2 cells; human) of the same molecule?
Answer: The value was greater than 50 µM.

Question: What about the IC50 (Mtb LeuRS) of the same molecule?
Answer: The IC50 was 1.97 µM.

Question: And the MIC [2, 3]?
Answer: Its MIC is 0.925 µM (≈ 0.303 µg/mL).

Question: Which “Selectivity Index (A/B)” value (HepG2 cells) does the source give for `CC1(C)COc2c(Cl)ccc3c2B(O[C@@H]3CN)O1` [Example C13-Cl, reference compound] here?
Answer: The value was greater than 10.

Question: And the “HepG2 cell 48 h Tox50 (A)” value (HepG2 cells; human)?
Answer: The value was greater than 50 µM.

Question: What about the IC50 (Mtb LeuRS) of the same molecule?
Answer: Its IC50 is 2.16 µM.

Question: What about the MIC [2, 3] of the same molecule?
Answer: Its MIC is 5 µM (≈ 1.34 µg/mL).
